Assay results from US20210262025A1, “MULTIPLEXED IN VIVO DISEASE SENSING WITH NUCLEIC ACID-BARCODED REPORTERS” (Massachusetts Institute of Technology, priority 2020, published 2021).
“Also recorded” adds a separate entry of the source. Strand notation (5' to 3'): a small letter for the sugar, then the base; units joined by * are phosphorothioate-linked, units joined directly phosphodiester-linked; [ ] holds rarer units or linkages, { } end groups; capitals alone tell only the bases. Primed or numbered codes have the meaning given here. Where no end group is shown, it is not given here. [ ]: non-standard residue; d: D form. The star is where a group is joined. 5FAM = O=C1OC2(c3ccc(O)cc3Oc3cc(O)ccc32)c2ccc(C(=O)*)cc21; PEG2′ = not defined here; d = 2'-deoxy (DNA); CPQ2 = quencher

Legend:
tumor tissue homogenates = assay: Tissue lysate proteolytic cleavage assay of FRET-paired peptide substrates; type: biochemical, Balb/c mice; settings: tumor-bearing or healthy lung tissue homogenates, ex vivo
Protocol: FIGS. 6A-6E show experiments relating to portable monitoring invasive CRC using DNA-encoded multiplex synthetic urine biomarkers. […] Peptide cleavage kinetics were monitored and cleavage rates were plotted (n=5 mice per group; ±SEM; unpaired t-test with Welch's correction, **P<0.01, ****P<0.0001). […] All urine samples were collected at 1 h after sensor administration. Cas12a trans-cleavage assays were performed against each DNA-barcode with the fluorophore-quencher paired reporter. Initial reaction velocity (V0) of the Cas12a trans-cleavage assays were calculated and normalized to that of saline injected control animals (n=8 or 10 mice per group; ±SEM; unpaired t-test with Welch's correction, *P<0.05, **P<0.01). The initial reaction velocity (V0) refers to the slope of the curve at the beginning of a reaction. […] Band intensities were quantified using ImageJ. […] ROC analysis utilized ratio of quantified cleaved reporter band intensity over its corresponding control band intensity. Dashed line represents an AUC of 0.5, and a perfect AUC is 1.0.
Tissue samples were homogenized in PBS and centrifuged at 4° C. for 5 min at 6,000×g. Supernatant was further centrifuged at 14,000×g for 25 min at 4° C. Protein concentration was measured using ThermoFisher BCA Protein Assay Kit and prepared at 2 mg/mL prior to assay. Assays were performed in the 384-well plate in triplicate in enzyme-specific buffer with peptides (1 μM) and cell lysates (0.33 mg/mL) in 30 μL at 37° C. Fluorescence was measured at Ex/Em 485/535 nm using a Tecan Infinite 200pro microplate reader (Tecan). Signal increase at 60 min was used across conditions.

LbaCas12a [1] = assay: Cas12a fluorescent cleavage assay, DNA activators in solution; type: biochemical, Lachnospiraceae bacterium ND2006
Source text: (§1) In particular, the Cas12a from Lachnospiraceae bacterium ND2006 (LbaCas12a, UniProtKB Accession No. A0A182DWE3) assembled with guide CRISPR RNA sequences (crRNAs) recognizes 1) a T nucleotide-rich protospacer-adjacent motif (PAM) to target double-stranded DNA (dsDNA), or 2) single-stranded DNA (ssDNA) through sequence complementarity in a PAM-independent manner, and unleashes a robust, nonspecific ssDNA trans-cleavage activity that can be monitored using a fluorophore (F)-quencher (Q)-labeled reporter (FIG. 2A) (Chen et al. Science 360, 436-439 (2018)). […] In Table 6, activation of Cas12a with native and modified DNA oligos was quantified in the Cas12a fluorescent cleavage assay. […]
(§2) LbCas12a (final concentration 100 nM, New England Biolabs) was incubated with 1× NEB BUFFER™ 2.1, crRNA (250 nM, IDT) and complementary DNA activators (4 nM unless specifically described, IDT, in solution or spiked in urine) or urine samples collected from experimental animals at 37° C. for 30 min. […] LbCas12a activation was detected at 37° C. every 2 min for 3 hours by measuring fluorescence with plate reader Tecan Infinite Pro M200 (λex: 485 nm and λem: 535 nm). Fluorescence for background conditions (either no DNA activator input or no crRNA conditions) were run with each assay to generate background fluorescence as negative controls. […]

LbaCas12a [2] = assay: Cas12a fluorescent cleavage assay with urine of mice injected with DNA activators; type: in vivo, Lachnospiraceae bacterium ND2006; settings: urine collected after 1 h added to reaction
Source text: as §1, §2

FRET-PAP11 = system: T1, FRET-PAP11
T1 sequence: GGGSGRSANAKGKGC

[3] = system: serine and metalloproteases; assay: Recombinant protease substrate cleavage assay; type: biochemical
Protocol: Fluorogenic protease substrates with fluorophore (FAM) and quencher (CPQ2) were synthesized by CPC Scientific Inc. Recombinant proteases were purchased from Enzo Life Sciences and R&D Systems. Assays were performed in the 384-well plate in triplicate in enzyme-specific buffer with peptides (1 μM) and proteases (40 nM) in 30 μL at 37° C. Fluorescence was measured at Ex/Em 485/535 nm using a Tecan Infinite 200pro microplate reader (Tecan). Signal increase at 60 min was used across conditions.

cMET = target: T2, cMET (human, UniProt P08581 25-1390); assay: in vivo biodistribution (IVIS imaging) of Cy7-labelled nanobody after i.v. injection into nude mice bearing cMET-expressing PC-3 xenografts
T2 construct: whole, on cells; The target is presented on cMET- and PLAU-expressing tumors derived from PC-3 cells in nude mice; It is not a purified protein

subcutaneous PC-3 tumors = system: subcutaneous PC-3 tumors; set-up: species or system nude mice; settings: mouse, in vivo
Protocol: Studies were performed in experimental animals with near-infrared dye labeled agents to minimize interference from autofluorescent background. Balb/c mice were intravenously injected with Cy5-labeled modified or native DNA molecules at 1 nmol per mouse, n=3 per condition. Urine samples from each mouse was collected at 30 min, 1, 2, 3, 4 hours after injection. C-met nanobodies were coupled with Sulfo-Cyanine7 NHS ester (Lumiprobe), reacted overnight, purified by spin filtration and injected into PC-3 tumor-bearing nude mice (1.5 nmol dye eq. of protein) via i.v. injection. After 24 hours, mice were euthanized and necropsy was performed to remove the tumors, lungs, heart, kidneys, liver, and spleen. Urine, blood and organs were scanned using IVIS Imaging Systems and ODYSSEY® CLx (LI-COR). Organ fluorescence was quantified in ImageStudio of ODYSSEY® CLx. Blood circulatory kinetics were monitored in Balb/c mice by serial blood draws at 10 min, 30 min, 120 min and 180 min after i.v. injection of Cy5-labeled DNA or PEG at 1 nmol dye per mouse. Blood for pharmacokinetics measurements was collected using tail vain bleeds. Blood was diluted in PBS with 5 mM EDTA to prevent clotting, centrifuged for 5 min at 5,000×g, and fluorescent reporter concentration was quantified in 384-well plates relative to standards (LI-COR ODYSSEY® CLx).

[4] = Solubility of purified recombinant nanobody; type: physicochemical; settings: after affinity and size-exclusion chromatography
Source text: One major challenge for diagnosis and therapy of cancer is tailoring multiple disease signatures, which are defined by biological differences spanning genetic, transcriptomic, and proteomic differences between tumor and healthy tissue, while minimizing off-target effects (Hunter, K. Nature reviews. Cancer 2006, 6, 141). To this end, a tumor-targeting nanobody was re-engineered to construct protease-activatable nanobodies through programmable genetic encoding (FIGS. 5A-5B). Protease-activatable nanobodies were constructed by inserting a well characterized PLAU substrate (PQ2: GGSGRSANAK (SEQ ID NO: 3)) with an unpaired cysteine for one-step site-specific labeling of cargos via a thio-ether bond (see, e.g., Masa et al., Bioconjugate chemistry 2014, 25, 979). The cysteine was introduced at the carboxyl terminus, positioning the conjugation-site on the opposite side of the antigen-binding region to avoid antigen binding interference. To prevent possible misfolding caused by the internal disulfide bond present in the Nb, the peptide substrate with cysteine is spaced by a rigid linker (SPSTPPTPSPSTPP (SEQ ID NO: 6)) from the Nb sequence.

T2 sequence (P08581 25-1390): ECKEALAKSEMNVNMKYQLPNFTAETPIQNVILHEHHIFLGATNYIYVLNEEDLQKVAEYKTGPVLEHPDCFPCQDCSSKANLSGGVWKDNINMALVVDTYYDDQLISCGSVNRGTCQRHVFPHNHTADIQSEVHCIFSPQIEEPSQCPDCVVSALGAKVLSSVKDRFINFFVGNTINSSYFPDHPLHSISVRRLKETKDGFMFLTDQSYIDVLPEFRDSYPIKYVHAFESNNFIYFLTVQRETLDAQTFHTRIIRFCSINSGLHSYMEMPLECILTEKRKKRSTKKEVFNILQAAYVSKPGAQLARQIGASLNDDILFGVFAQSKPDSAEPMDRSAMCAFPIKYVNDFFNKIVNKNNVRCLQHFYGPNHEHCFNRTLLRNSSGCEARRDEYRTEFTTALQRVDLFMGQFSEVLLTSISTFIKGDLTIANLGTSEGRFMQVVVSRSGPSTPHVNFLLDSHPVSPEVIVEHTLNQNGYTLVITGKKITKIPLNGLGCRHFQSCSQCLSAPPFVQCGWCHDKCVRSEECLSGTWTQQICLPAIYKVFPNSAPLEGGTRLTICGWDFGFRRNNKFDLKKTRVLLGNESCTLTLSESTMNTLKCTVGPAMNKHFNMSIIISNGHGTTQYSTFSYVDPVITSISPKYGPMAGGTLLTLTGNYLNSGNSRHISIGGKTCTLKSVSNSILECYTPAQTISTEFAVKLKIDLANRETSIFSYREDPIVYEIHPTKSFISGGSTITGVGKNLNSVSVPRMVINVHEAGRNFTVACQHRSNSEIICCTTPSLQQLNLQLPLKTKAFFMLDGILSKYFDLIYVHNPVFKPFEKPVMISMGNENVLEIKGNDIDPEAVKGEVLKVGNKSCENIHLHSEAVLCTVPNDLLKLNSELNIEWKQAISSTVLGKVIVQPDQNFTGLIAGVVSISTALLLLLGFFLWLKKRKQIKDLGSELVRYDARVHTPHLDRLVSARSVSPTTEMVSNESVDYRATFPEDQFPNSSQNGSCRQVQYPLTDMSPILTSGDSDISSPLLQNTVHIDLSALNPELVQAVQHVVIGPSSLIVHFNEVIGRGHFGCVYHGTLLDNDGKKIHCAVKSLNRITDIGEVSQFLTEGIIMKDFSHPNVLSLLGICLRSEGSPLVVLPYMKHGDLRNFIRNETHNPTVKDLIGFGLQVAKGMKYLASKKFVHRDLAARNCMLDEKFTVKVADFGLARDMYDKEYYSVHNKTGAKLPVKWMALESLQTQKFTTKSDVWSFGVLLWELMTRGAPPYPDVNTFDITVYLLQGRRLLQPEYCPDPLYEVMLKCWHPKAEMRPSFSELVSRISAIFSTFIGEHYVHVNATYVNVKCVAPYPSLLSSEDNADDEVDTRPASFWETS

For “FRET-PAP7: 5FAM-GGPLGVRGKK(CPQ2)-PEG2-GC (SEQ ID NO: 61) (5FAM-GGPLGVRGKK(CPQ2)[PEG2′]GC)”, the “cleavage by tissue homogenates” value (tumor tissue homogenates) was “specifically cleaved”.

In the case of “Mod 10 mer: fully phosphorothioate-modified ssDNA activator, SEQ ID NO: 35 (DNA dC*dG*dT*dA*dA*dC*dG*dA*dT*dC)”, the “Modified DNA in vitro (V0)” value (LbaCas12a [1]; initial reaction velocity (slope at beginning of reaction), 4 nM of phosphorothioate-modified DNA activator per reaction) is reported as 0.01 and the “Modified DNA in vivo (V0)” value (LbaCas12a [2]; 1 nmol modified DNA activator injected into healthy Balb/c mice) is reported as 0.01.

With “FRET-PAP13: 5FAM-GGVPRGG-K(CPQ2)-PEG2-GC (SEQ ID NO: 67) (5FAM-GGVPRGGK(CPQ2)[PEG2′]GC)” the “cleavage by tissue homogenates” value (tumor tissue homogenates) was “specifically cleaved”.

In the case of “PLAU (urokinase-type plasminogen activator), recombinant”, the “cleavage of FRET-paired peptide substrate by recombinant protease (fluorogenic activity assay, FIG. 13D)” value (FRET-PAP11) is reported as “The peptide substrate specifically responded to the PCa-associated protease PLAU”.

With “FRET-PAP11: 5FAM-GGGSGRSANAKG-K(CPQ2)-PEG2-GC (SEQ ID NO: 65) (5FAM-GGGSGRSANAKGK(CPQ2)[PEG2′]GC)” the “cleavage by tissue homogenates” value (tumor tissue homogenates) was “specifically cleaved”.

With “FRET-PAP9: 5FAM-GGfPRSGGGK(CPQ2)-PEG2-GC (SEQ ID NO: 63)” the “cleavage by tissue homogenates” value (tumor tissue homogenates) was “specifically cleaved; also recorded: distinct cleavage patterns” and the “cleavage by recombinant proteases in vitro” value [3] was “cleaved by serine and metalloproteases in vitro”.

For “10 mer: native ssDNA activator CGTAACGATC (SEQ ID NO: 28) (unmodified DNA)”, the “Native DNA in vitro (V0)” value (LbaCas12a [1]; initial reaction velocity, 4 nM of native DNA activator per reaction) was 0.00 and the “Native DNA in vivo (V0)” value (LbaCas12a [2]; 1 nmol native DNA activator injected into healthy Balb/c mice) was 0.00.

B1: cMET nanobody (PLAU-activated, cMET-targeting nanobody) (VHH)
VHH: EVQLVESGGGLVQPGGSLRLSCAASGFILDYYAIGWFRQAPGKEREGVLCIDASDDITYYADSVKGRFTISRDNAKNTVYLQMNSLKPEDTGVYYCATPIGLSSSCLLEYDYDYWGQGTLVTVSS
modifications: labelled with Sulfo-Cyanine7 NHS ester for the biodistribution study (sites not given)
notes: also called C-met nanobodies; Nb-PAS
B1: binds (cMET).

B2: GFP nanobody: non-targeting nanobody against GFP (Clone LaG-16) with rigid linker, PLAU substrate and cysteine, SEQ ID NO: 72 (protein)
VHH: MAQVQLVESGGRLVQAGDSLRLSCAASGRTFSTSAMAWFRQAPGREREFVAAITWTVGNTILGDSVKGRFTISRDRAKNTVDLQMDNLEPEDTAVYYCSARSRGYVLSVLRSVDSYDYWGQGTQVTVSGSHHHHHHSPSTPPTPSPSTPPGSGRSANAKGGGSC
For B2, the “tumor trafficking upon systemic administration” value (subcutaneous PC-3 tumors) was “did not”.

B3: cMET nanobody: PLAU-activated, cMET-targeting nanobody with rigid linker, PLAU substrate and unpaired cysteine, SEQ ID NO: 71 (protein)
VHH: MEVQLVESGGGLVQPGGSLRLSCAASGFILDYYAIGWFRQAPGKEREGVLCIDASDDITYYADSVKGRFTISRDNAKNTVYLQMNSLKPEDTGVYYCATPIGLSSSCLLEYDYDYWGQGTLVTVSSGSHHHHHHSPSTPPTPSPSTPPGSGRSANAKGGGSC
In the case of B3, the “tumor trafficking upon systemic administration” value (subcutaneous PC-3 tumors) is reported as “mediated active tumor trafficking” and the solubility [4] is reported as “comparable solubility with the original Nb”.
